In ChEMBL document CHEMBL1135617, “Dicarboxylic acid bis(L-prolyl-pyrrolidine) amides as prolyl oligopeptidase inhibitors” (J Med Chem, 2002):

What was measured:
Prolyl endopeptidase [1] = target: T1, Prolyl endopeptidase (Sus scrofa, UniProt P23687); assay: In vitro inhibitory activity against prolyl oligopeptidase (POP) from pig brain; value ranges from (7800-54000)
Prolyl endopeptidase [2] = target: T1, Prolyl endopeptidase; assay: In vitro inhibitory activity against prolyl oligopeptidase (POP) from pig brain; value ranges from (72-92)
Prolyl endopeptidase [3] = target: T1, Prolyl endopeptidase
Prolyl endopeptidase [4] = target: T1, Prolyl endopeptidase; assay: In vitro inhibitory activity against prolyl oligopeptidase (POP) from pig brain; value ranges from (38-110)
Prolyl endopeptidase [5] = target: T1, Prolyl endopeptidase; assay: In vitro inhibitory activity against prolyl oligopeptidase (POP) from pig brain; value ranges from (59 - 100)
Prolyl endopeptidase [6] = target: T1, Prolyl endopeptidase; assay: In vitro inhibitory activity against prolyl oligopeptidase (POP) from pig brain; value ranges from (44-110)

T1 sequence (P23687 whole entry): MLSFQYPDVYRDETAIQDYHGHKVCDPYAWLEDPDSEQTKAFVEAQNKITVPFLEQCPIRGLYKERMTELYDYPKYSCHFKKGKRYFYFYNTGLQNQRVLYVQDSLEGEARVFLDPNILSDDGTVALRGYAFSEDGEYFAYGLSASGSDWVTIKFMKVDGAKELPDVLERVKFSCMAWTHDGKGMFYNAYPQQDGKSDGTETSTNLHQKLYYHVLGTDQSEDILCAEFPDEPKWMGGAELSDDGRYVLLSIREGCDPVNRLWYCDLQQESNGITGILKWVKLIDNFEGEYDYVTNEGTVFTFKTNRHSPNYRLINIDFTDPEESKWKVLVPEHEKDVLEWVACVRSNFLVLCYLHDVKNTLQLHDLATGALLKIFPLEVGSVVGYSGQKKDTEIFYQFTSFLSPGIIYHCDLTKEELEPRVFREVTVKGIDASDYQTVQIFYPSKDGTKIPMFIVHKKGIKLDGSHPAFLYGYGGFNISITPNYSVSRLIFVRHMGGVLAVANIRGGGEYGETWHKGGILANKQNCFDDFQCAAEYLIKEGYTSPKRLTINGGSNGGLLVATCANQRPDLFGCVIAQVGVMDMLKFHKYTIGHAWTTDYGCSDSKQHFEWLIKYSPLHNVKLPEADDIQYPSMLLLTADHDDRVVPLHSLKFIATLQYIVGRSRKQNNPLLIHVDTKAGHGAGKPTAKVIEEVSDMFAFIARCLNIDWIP

`O=C(C1CCCN1C(=O)c1ccccc1C(=O)N1CCC[C@H]1C(=O)N1CCCC1)N1CCCC1` (stereo partly specified) was tested, and the IC50 (Prolyl endopeptidase [1]) was 21000 nM.

For `O=C(C1CCCN1C(=O)c1ccc(C(=O)N2CCC[C@H]2C(=O)N2CCCC2)cc1)N1CCCC1` (stereo partly specified), the IC50 (Prolyl endopeptidase [2]) was 81 nM.

`O=C(CO)[C@@H]1CCCN1C(=O)[C@@H]1CCCN1C(=O)c1cccc(C(=O)N2CCCC2C(=O)N2CCCC2)c1` (stereo partly specified) was tested, and the IC50 (Prolyl endopeptidase [3]) was 0.39 nM.

With `O=C([C@@H]1CCCN1C(=O)c1ccccc1)N1CCCC1` the IC50 (Prolyl endopeptidase [4]) was 66 nM.

For `O=C(C1CCCN1C(=O)CCC(=O)N1CCC[C@H]1C(=O)N1CCCC1)N1CCCC1` (stereo partly specified), the IC50 (Prolyl endopeptidase [5]) was 77 nM.

`O=C(C1CCCN1C(=O)CCCCC(=O)N1CCC[C@H]1C(=O)N1CCCC1)N1CCCC1` (stereo partly specified) was tested, and the IC50 (Prolyl endopeptidase [6]) was 68 nM.
